Data from patent US12060347B2 (BRISTOL-MYERS SQUIBB COMPANY, priority 2016, dated 2024).

Target: T1, human PAR4 (Homo sapiens, UniProt Q96RI0)
T1 construct: expressed in transfected cells; host or cells: HEK293 PAR4 Clone 1.2A (BMS Arctic ID 383940)
T1 sequence (Q96RI0 18-385): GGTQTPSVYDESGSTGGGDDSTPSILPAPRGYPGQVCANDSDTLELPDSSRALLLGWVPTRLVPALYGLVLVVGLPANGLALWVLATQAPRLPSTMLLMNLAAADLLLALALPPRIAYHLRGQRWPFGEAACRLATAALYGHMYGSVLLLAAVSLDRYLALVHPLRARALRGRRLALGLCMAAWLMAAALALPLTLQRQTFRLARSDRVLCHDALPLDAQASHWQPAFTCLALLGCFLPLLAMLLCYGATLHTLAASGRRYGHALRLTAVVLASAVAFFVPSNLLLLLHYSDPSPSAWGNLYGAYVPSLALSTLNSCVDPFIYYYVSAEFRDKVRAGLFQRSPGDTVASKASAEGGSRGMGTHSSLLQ
Experiment: PAR4 FLIPR assay: antagonism of agonist-peptide-induced calcium mobilization in PAR4-expressing HEK293 cells
Format: cell-based
Details: H-Ala-Phe(4-F)-[…]NH2-induced intracellular calcium mobilization, 11-point curves

Structure (SMILES)	IC50 [nM]
COCc1cnc2c(-c3nc4c(C(O)c5cccnc5)cc(OC)cc4s3)cc(C)cc2n1 (stereo not drawn) [Example 168, (6-methoxy-2-(2-(methoxymethyl)-7-methylquinoxalin-5-yl)benzo[d]thiazol-4-yl) (pyridin-3-yl)methanol]	2
COc1cnc2c(-c3nc4cc(F)c(OC[C@@H](C)OC(=O)Nc5cnc(OC[C@H](C)O)nc5)nc4s3)cc(C)cc2n1 [Example 701, (R)-1-((6-fluoro-2-(2-methoxy-7-methylquinoxalin-5-yl)thiazolo[5,4-b]pyridin-5-yl)oxy) propan-2-yl (2-((S)-2-hydroxypropoxy)pyrimidin-5-yl)carbamate]	2.7
COc1cnc2c(-c3nc4cc(F)c(O[C@@H](C)[C@@H](C)OC(=O)Nc5ccnc(CO)c5)nc4s3)cc(C)cc2n1 [Example 723, (2R,3S)-3-((6-fluoro-2-(2-methoxy-7-methylquinoxalin-5-yl)thiazolo[5,4-b]pyridin-5-yl)oxy)butan-2-yl (2-(hydroxymethyl)pyridin-4-yl)carbamate]	2.4
COc1cncc(NC(=O)O[C@H](C)[C@H](C)Oc2cc3sc(-c4cc(Cl)cc5cc(OC)cnc45)nc3cc2F)c1 [Example 785, (2R,3S)-3-((2-(6-chloro-3-methoxyquinolin-8-yl)-5-fluorobenzo[d]thiazol-6-yl)oxy)butan-2-yl (5-methoxypyridin-3-yl)carbamate]	3.5
CCOc1cnc2c(-c3nc4cc(F)c(O[C@@H](C)[C@@H](C)OC(=O)Nc5cnc(CCOP(=O)(O)O)nc5)cc4s3)cc(C)cc2n1 [Example 624, (2R,3S)-3-((2-(2-ethoxy-7-methylquinoxalin-5-yl)-5-fluorobenzo[d]thiazol-6-yl)oxy)butan-2-yl (2-(2-(phosphonooxy)ethyl)pyrimidin-5-yl)carbamate]	0.7
COc1ccc(C)c2nc(-c3cc(C)cc4nc(OC(F)F)cnc34)sc12 [Example 12, 2-(2-(difluoromethoxy)-7-methylquinoxalin-5-yl)-7-methoxy-4-methylbenzo[d]thiazole]	2
COc1cnc2c(-c3cc4cccc(Cl)c4o3)cc(C)cc2n1 [Example 37, 5-(7-chlorobenzofuran-2-yl)-2-methoxy-7-methylquinoxaline]	22
COc1cnc2c(-c3nc4cc(F)c(O[C@@H](C)[C@@H](C)OC(=O)Nc5cnc(OCCO)nc5)nc4s3)cc(C)cc2c1 [Example 775, (2R,3S)-3-((6-fluoro-2-(3-methoxy-6-methylquinolin-8-yl)thiazolo[5,4-b]pyridin-5-yl)oxy)butan-2-yl (2-(2-hydroxyethoxy)pyrimidin-5-yl)carbamate]	0.8
COc1ccc(NC(=O)OCCOc2cc(C)c3nc(-c4cc(C)cc5nc(OC)cnc45)sc3c2)cn1 [Example 112, 2-(2-(2-methoxy-7-methylquinoxalin-5-yl)-4-methylbenzo[d]thiazol-6-yloxy)ethyl 6-methoxypyridin-3-ylcarbamate]	2
COc1cnc2c(-c3nc4c(s3)CC(CCO)C4)cc(C)cc2n1 (stereo not drawn) [Example 142, 2-(2-(2-methoxy-7-methylquinoxalin-5-yl)-5,6-dihydro-4H-cyclopenta[d]thiazol-5-yl) ethanol]	5.6
COc1cnc2c(-c3nc4cc(F)c(OC[C@@H](C)OC(=O)Nc5ccnc(C(=O)N(C)C)c5)cc4s3)cc(C)cc2n1 [Example 447, (R)-1-((5-fluoro-2-(2-methoxy-7-methylquinoxalin-5-yl)benzo[d]thiazol-6-yl)oxy)propan-2-yl (2-(dimethylcarbamoyl)pyridin-4-yl)carbamate]	21
COc1cnc2c(-c3nc4cc(F)c(OCC(COCC(C)C)OC(=O)Nc5cccnc5)cc4s3)cc(C)cc2n1 (stereo not drawn) [Example 379, 1-((5-fluoro-2-(2-methoxy-7-methylquinoxalin-5-yl)benzo[d]thiazol-6-yl)oxy)-3-isobutoxypropan-2-yl pyridin-3-ylcarbamate]	1.7
COc1cnc2c(-c3nc4c(C)cc(OC)cc4s3)cc(Cl)cc2c1 [Example 626, 2-(6-chloro-3-methoxyquinolin-8-yl)-6-methoxy-4-methylbenzo[d]thiazole]	7.2
COC(=O)N1CCc2nc(-c3cc(C)cc4nc(OC(F)F)cnc34)sc2C1 [Example 62, methyl 2-(2-(difluoromethoxy)-7-methylquinoxalin-5-yl)-6,7-dihydrothiazolo[5,4-c]pyridine-5(4H)-carboxylate]	100
COCCNC(=O)c1cc(-c2nc3c(C)cc(OCCNS(=O)(=O)c4ccc(F)cc4)cc3s2)c2ncc(COC)nc2c1 [Example 228, 8-(6-(2-(4-fluorophenylsulfonamido)ethoxy)-4-methylbenzo[d]thiazol-2-yl)-N-(2-methoxyethyl)-3-(methoxymethyl)quinoxaline-6-carboxamide]	890
COc1cnc2c(-c3nc4c(C)cc(OC[C@@H](C)OC(=O)Nc5cnc(F)c(C)c5)nc4s3)cc(C)cc2n1 [Example 734, (R)-1-((2-(2-methoxy-7-methylquinoxalin-5-yl)-7-methylthiazolo[5,4-b]pyridin-5-yl)oxy) propan-2-yl (6-fluoro-5-methylpyridin-3-yl)carbamate]	1
COc1cnc2c(-c3nc4cc(F)c(O[C@@H](C)[C@@H](C)OC(=O)Nc5ccnc(OCCO)c5)nc4s3)cc(C)cc2n1 [Example 719, (2R,3S)-3-((6-fluoro-2-(2-methoxy-7-methylquinoxalin-5-yl)thiazolo[5,4-b]pyridin-5-yl)oxy)butan-2-yl (2-(2-hydroxyethoxy)pyridin-4-yl)carbamate]	1.7

Further molecules by falling IC50, results first:

IC50 [nM]	Structure (SMILES)
48	COCc1cnc2c(-c3nc4cccnc4s3)cc(C)cc2n1 [Example 148, 2-(2-(methoxymethyl)-7-methylquinoxalin-5-yl)thiazolo[5,4-b]pyridine]
8.6	COc1cnc2c(-c3nc4c(Cl)c(F)c(OCCOC(=O)NCc5ccn(C)n5)cc4s3)cc(C)cc2n1 [Example 398, 2-((4-chloro-5-fluoro-2-(2-methoxy-7-methylquinoxalin-5-yl)benzo[d]thiazol-6-yl)oxy)ethyl ((1-methyl-1H-pyrazol-3-yl)methyl)carbamate]
6	COCc1cnc2c(-c3nc4c(C)c(F)c(O)cc4s3)cc(C)cc2n1 [Example 290, 5-fluoro-2-(2-(methoxymethyl)-7-methylquinoxalin-5-yl)-4-methylbenzo[d] thiazol-6-ol]
5.8	COc1cnc2c(-c3nc4cc(F)c(O[C@@H](C)[C@@H](C)OC(=O)Nc5cnc(OC[C@@H](C)O)nc5)cc4s3)cc(C)cc2n1 [Example 578, (2R,3S)-3-((5-fluoro-2-(2-methoxy-7-methylquinoxalin-5-yl)benzo[d]thiazol-6-yl)oxy)butan-2-yl (2-((R)-2-hydroxypropoxy)pyrimidin-5-yl)carbamate]
5	COc1cnc2c(-c3nc4cc(F)c(O[C@@H](C)[C@@H](C)OC(=O)Nc5ccnc(OCCO)c5)nc4s3)cc(Cl)cc2c1 [Example 780, (2R,3S)-3-((2-(6-chloro-3-methoxyquinolin-8-yl)-6-fluorothiazolo[5,4-b]pyridin-5-yl)oxy) butan-2-yl (2-(2-hydroxyethoxy)pyridin-4-yl)carbamate]
3	COc1cnc2c(-c3nc4c(C)cc(OCCOC(=O)Nc5ccncc5)cc4s3)cc(C)cc2n1 [Example 113, 2-(2-(2-methoxy-7-methylquinoxalin-5-yl)-4-methylbenzo[d]thiazol-6-yloxy)ethyl pyridin-4-ylcarbamate]
2.5	COc1cnc2c(-c3nc4c(Cl)c(F)c(O[C@@H](C)[C@@H](C)OC(=O)Nc5ccncc5)cc4s3)cc(Cl)cc2c1 [Example 798, (2R,3S)-3-((4-chloro-2-(6-chloro-3-methoxyquinolin-8-yl)-5-fluorobenzo[d]thiazol-6-yl)oxy)butan-2-yl pyridin-4-ylcarbamate]
2.5	COc1cnc2c(-c3nc4c(Cl)c(F)c(O[C@@H](C)[C@@H](C)OC(=O)Nc5cnc(C)c(C)c5)cc4s3)cc(Cl)cc2c1 [Example 800, (2R,3S)-3-((4-chloro-2-(6-chloro-3-methoxyquinolin-8-yl)-5-fluorobenzo[d]thiazol-6-yl)oxy)butan-2-yl (5,6-dimethylpyridin-3-yl)carbamate]
2.2	COc1cnc2c(-c3nc4c(C)cc(OCCNS(=O)(=O)c5ccc(F)cc5)cc4s3)cc(CO)cc2n1 [Example 235, 4-fluoro-N-(2-((2-(7-(hydroxymethyl)-2-methoxyquinoxalin-5-yl)-4-methylbenzo[d]thiazol-6-yl)oxy)ethyl)benzenesulfonamide]
1.7	COc1cnc2c(-c3nc4cc(F)c(O[C@@H](C)[C@@H](C)OC(=O)Nc5ccc(CC(C)(C)O)nc5)nc4s3)cc(C)cc2n1 [Example 718, (2R,3S)-3-((6-fluoro-2-(2-methoxy-7-methylquinoxalin-5-yl)thiazolo[5,4-b]pyridin-5-yl)oxy)butan-2-yl (6-(2-hydroxy-2-methylpropyl)pyridin-3-yl)carbamate]
1	COc1cnc2c(-c3nc4ccc(OCCNS(=O)(=O)c5ccccc5)cc4s3)cc(C)cc2n1 [Example 72, N-(2-(2-(2-methoxy-7-methylquinoxalin-5-yl)benzo[d]thiazol-6-yloxy)ethyl)benzenesulfonamide]
0.8	COCc1cnc2c(-c3nc4c(CO)cc(OC)cc4s3)cc(C)cc2n1 [Example 155, (6-methoxy-2-(2-(methoxymethyl)-7-methylquinoxalin-5-yl)benzo[d]thiazol-4-yl) methanol]
0.6	COCc1cnc2c(-c3nc4c(Cl)cc(OCCNS(=O)(=O)c5ccccc5)cc4s3)cc(C)cc2n1 [Example 99, N-(2-(4-chloro-2-(2-(methoxymethyl)-7-methylquinoxalin-5-yl)benzo[d]thiazol-6-yloxy)ethyl)benzenesulfonamide]
